The test system of one data set is CAKi1. The settings on record: CAKi1 renal cell line, NIH dose response data; cited from earlier work.
Another data set deals with TK10. Particulars: TK10 renal cell line, NIH dose response data; cited from earlier work.
Data set [1] relates to PS2 and Cyp1A1 promoters in MCF7. Description: Chromatin Immunoprecipitation (ChIP), AhR and ER crosstalk. The data set is classed as cell-based, Human. The settings on record: MCF7, 4 or 8 hours post-treatment with AF, FIG. 3. The text has this: (§1) Considering that the AhR and ER are both nuclear receptors and act as transcription factors, modulation of ER action after AhR activation by AF (“crosstalk”) was theorized to contribute to overall AF effects in ER+ cell lines. Therefore, Chromatin Immunoprecipitation (ChIP) was employed to study the potential crosstalk of AhR and ER after AF action at the PS2 promoter, a classical ER/estradiol inducible gene, and on Cyp1A1, a classical AF/AhR inducible gene known to be induced by AF. Transcription components studied were the AhR, ER, ARNT (the AhR transcriptional partner), RNA Polymerase II and CBP. CBP is a histone acetyl transferase associated with productive AhR induction of gene expression (Hestermann, E. V. and M. Brown, Mol Cell Biol, 23(21):7920-5 (2003)). In both T47D and MCF7 ER+ cell lines, all transcription components tested were present on the Estradiol inducible PS2 gene promotor, including the AhR. On the Cyp1A1 promotor, all the apparatus excluding CBP was present.
(§2) ChIP analysis was performed employing the Chromatin Immunoprecipitation (ChIP) Assay Kit (Millipore) as per company recommendations. […]
(§3) The resultant DNA was analyzed by PCR employing GoTaq Green Master Mix (Promega) using the following protocol: 94° C. for 2 minutes for initial melting, followed by 35 cycles at 94° C. for 30 seconds, 55° C. for 40 seconds, 72° C. […]

Data set [2] concerns PS2 and Cyp1A1 promoters in T47D. Described as above. The data set is classed as cell-based, Human. The settings on record: 4 or 8 hours post-treatment with AF, FIG. 3.
Description: as §1, §2, §3

In data set [3] the test system is gamma-H2AX in MDA-MBA-468. Description: Western blot analysis for phosphorylated H2AX. In kind it is cell-based, Human. The settings on record: MDA-MBA-468, AF for 24 hrs, FIG. 2B. As for the experimental part:
(§4) Western blot analysis for phosphorylated H2AX (γ-H2AX) was performed by first growing cells to between 50% and 80% confluence and treating them with concentrations of AF for 24 hrs, according to the concentration at which 50% of the proliferation was inhibited (IC50). Cells were collected and centrifuged at 1,000×g for 15 minutes at 4° C. Histones were released by the method described by Meng et al. (Cancer Res, 65(12):5337-43 (2005)). Briefly, pellets were washed twice in PBS, homogenized in 0.2 mol/L H2SO4, and centrifuged at 13,000×g. The supernatant was removed and 0.25 volume of 100% (w/v) trichloroacetic acid was added to precipitate the histones. Samples were then centrifuged again at 13,000×g for 15 mins at 4° C. The supernatant was removed and the remaining pellet was suspended in 100% ethanol overnight. A final centrifugation step was performed at 13,000×g for 15 mins at 4° C. The solute was then dissolved in nuclease-free water. Protein concentration was determined using the Bio-Rad Protein Assay (Bio-Rad, CA). 30 μg of protein was resolved on 4-20% Tris-glycine precast gels (Invitrogen). Proteins were transferred onto a PVDF membrane (Immobilon-P, Millipore) and then blocked with 5% milk in TBST (0.1% Tween-20 in 1× Tris-buffered saline—pH 7.4) for 1 hr. […]
(In western blotting, separated proteins are transferred to a membrane and probed.)

The subject of data set [4] is gamma-H2AX in MDA-MBA-231. Description: Western blot analysis for phosphorylated H2AX. The data set is classed as cell-based, Human. The settings on record: MDA-MBA-231, AF for 24 hrs, FIG. 2B. As for the experimental part:
as §4

Turning to `Cc1c(F)c(N)c2c(=O)cc(-c3ccc(N)c(F)c3)oc2c1F` [AF, 5-amino-2-(4-amino-3-fluorophenyl)-6,8-difluoro-7-methylchromen-4-one], the AF sensitivity entry in the data set on CAKi1 and in the data set on TK10 was “AF sensitive” throughout. The “transcriptional adjustment at PS2 and Cyp1A1 promoters (ChIP)” value in data set [1] is “dissociation of ER-related transcriptional control elements from the PS2 estrogenic promoter and their association with the Cyp1A1 promotor”; in data set [2], “dissociation of ER-related transcriptional control elements from the PS2 estrogenic promoter and their association with the Cyp1A1 promotor”. The “presence of gamma-H2AX (double stranded DNA breaks)” value is recorded as “observed” in data set [3] and “not observed at all” in data set [4].
